Source: US4192871A, “Chemical compounds” (Glaxo Laboratories Limited, priority 1976, dated 1980)
Structures can show the parent of a compound that is named as a salt.

Experiments:
pH of the salt solutions = assay type: physicochemical
Description: (§1) A solution of the above free base (492 mg; 1 mmole) in ethanol (10 ml) was treated with a solution (10 ml) of M/10 citric acid in ethanol water (9:1) and the mixture evaporated in vacuo at low temperature to afford a froth.
(§2) Table 5 summarises the properties and preparation of salts of the invention by one of the following methods:
(§3) A. The 11β-aminoester (1 part) was added to a solution of the acid (1 molar part) in water and the mixture stirred or shaken until a clear solution was obtained. The solution was made up with water to the weight indicated, filtered through a membrane and the pH determined.
(§4) B. The 11β-aminoester (1 part) was added to a solution of the acid (1 molar part) in water and the mixture stirred or shaken. As free base remained undissolved, further acid was added and the mixture agitated again. The solution was made up with water to the weight indicated and any material which then remained undissolved was collected in a weighed funnel and the weight of free base dissolved calculated and the pH of the solution measured.
(§5) C. A mixture of the 11β-aminoester (1 part), a 0.1 M solution of the acid (1 molar part) and ethanol was evaporated in vacuo and dried to constant weight. The residue was dissolved in a little water and any material which then remained undissolved collected in a weighed funnel and the weight of free base dissolved calculated. The solution was made up with water to the weight indicated and its pH measured.
(§6) D. The 11β-aminoester (1 part) was added to a solution of the acid (1 molar part) in water and the mixture stirred or shaken. The solution was made up with water to the weight indicated. The material remaining undissolved was collected in a weighed funnel and the weight of free base dissolved calculated and the pH of the solution measured.
(§7) E. As in method C except that further acid was added to the residue after addition of the small amount of water.
11β-N,N-Diethylaminoacetoxy-2β-ethoxy-3α-hydroxy-5α-pregnan-20-one (1.45 g) was agitated with citric acid monohydrate (621 mg) in 0.9% w/v sodium chloride solution (steriflex^(R)) (130 ml.) at 20° for 16.5 hours. The resulting solution was stirred at 21° and N/5 sodium hydroxide solution in steriflex^(R) (10.5 ml) was added dropwise during 30 minutes, raising the pH from 3.63 to 4.52. The solution was diluted to 162.5 g so that the concentration of steroid was 9 mg/ml. The solution of the citrate was filtered through a membrane and finally filtered into 8 sterile ampoules.
11β-(N-Butyl-N-ethylaminoacetoxy)-3α-hydroxy-5α-pregnan-20-one (1.80 g) was agitated with citric acid monohydrate (793 mg) in 0.9% w/v sodium chloride solution (steriflex^(R)) (160 ml) at 20° for 19.5 hours. The resulting solution was slightly cloudy. This solution was stirred at 21° and N/5 sodium hydroxide solution in steriflex^(R) (5.8 ml) was added dropwise during 15 minutes, raising the pH from 3.62 to 4.00. The solution was diluted to 201.2 g so that the concentration of steroid was 9 mg/ml. The cloudiness was removed by filtration through a membrane and the clear solution of the citrate was filtered into 8 sterile ampoules.
Sodium iodide (0.250 g) and diethylamine (0.5 ml) were added to a solution of 11β-chloroacetoxy-2β-ethoxy-3α-hydroxy-D-homo-5α-pregnan-20-one (0.250 g) in acetone (10 ml) and the mixture was left at room temperature for 3 days during which time a white solid precipated. Water was added and the yellow solution was concentrated in vacuo whereupon crystallisation occurred. The needles were filtered off and washed well with acetone/water yielding the title compound (0.201 g), m.p. 160°-73°, [α]D +60.8°. The above base (0.101 g) was stirred with citric acid monohydrate (0.042 g) in water (9.5 ml) for 21 hours. The solution was made up to 10.1 g by weight. The solid remaining out of solution was filtered off, dried and weighed. The solution was passed through a millipore filter giving an aqueous solution of the title compound, concentration 9.75 mg/ml, pH 3.66. […]

[1] = dissolution of the 11β-aminoester salts in aqueous acid (Table 5 and Examples 101, 225-229); assay type: physicochemical
Description: as §1, §2, §3, §4, §5, §6, §7
The solid citric acid used was as its monohydrate.
Sodium iodide (0.250 g) and diethylamine (0.5 ml) were added to a solution of 11β-chloroacetoxy-2β-ethoxy-3α-hydroxy-D-homo-5α-pregnan-20-one (0.250 g) in acetone (10 ml) and the mixture was left at room temperature for 3 days during which time a white solid precipated. Water was added and the yellow solution was concentrated in vacuo whereupon crystallisation occurred. The needles were filtered off and washed well with acetone/water yielding the title compound (0.201 g), m.p. 160°-73°, [α]D +60.8°. The above base (0.101 g) was stirred with citric acid monohydrate (0.042 g) in water (9.5 ml) for 21 hours. The solution was made up to 10.1 g by weight. The solid remaining out of solution was filtered off, dried and weighed. The solution was passed through a millipore filter giving an aqueous solution of the title compound, concentration 9.75 mg/ml, pH 3.66.
The above base (0.096 g) was stirred in a solution of citric acid monohydrate (0.038 g) in water (8.5 ml) for 20 hours. A large proportion of the steroid remained out of solution. More citric acid (0.038 g) was added and the mixture stirred for a further 6 hours. The solution was made up to 9.6 g by weight and the solid remaining out of solution was filtered off, dried and weighed. The solution was passed through a millipore filter giving an aqueous solution of the title compound, concentration 9.5 mg/ml, pH 2.85.
To a solution of citric acid monohydrate (52.5 mg) in water (2 ml) was added the above free base (115 mg). More water (8 ml) was added and the mixture was stirred for 72 hrs. A small amount of steroid remained out of solution and more citric acid (52.5 mg) was added. Within 5 mins. a clear solution was obtained which was made up to 11.5 g with water and filtered through a millipore filter yielding an aqueous solution of the title citrate, concentration 10 mg/ml, pH 3.0.
The above free base (112 mg) was added to a solution of citric acid monohydrate (52.5 mg) in water (2 ml). More water (8 ml) was added and the mixture was swirled from time to time. […]

[2] = aqueous solution of the salt, Table 5
[3] = method C: ethanol evaporated, residue in water, undissolved material weighed, WT. of solution Ex. 118: 10, 120: 10.4, 148: 9.54, 152: 5.6, 154: 9.1, 155: 8.77, 156: 9.06, 157: 9.5, 158: 9.38, 159: 9.17, 179: 9.65, 180: 11.7, 182: 4.9, 202: 12.05, 213: 12, 214: 11.5, 215: 11.1, 216: 11.6, 217: 12.1 g
[4] = method B: further acid added, undissolved material weighed, WT. of solution 10 g, except Ex. 130 and 141: 9.2, 142: 9.23, 143, 144, 189 and 199: 9.8, 149: 10.6, 153: 7.9, 162 and 188: 9.5, 163: 68, 166: 10.4, 168: 10.7, 169: 10.9, 183: 8.05, 184 and 201: 9.83, 185: 7.1, 186: 9.3, 192: 10.07, 193: 6.4, 195: 6.8, 196: 7, 197: 7.2, 200: 10.1, 206: 15 g
[5] = method A: clear solution, 1 molar part acid, made up with water to WT. of solution 10 g, except Ex. 121 and 150: 12, 123: 12.3, 124: 7.5, 129: 10.3, 135 and 139: 8.95, 164: 10.35, 170: 10.4, 181: 10.04, 187: 9.5, 210: 10.2, 221: 15 g
[6] = method D: 1 molar part acid, undissolved material weighed, WT. of solution 10 g, except Ex. 136: 8.95, 140: 9.52, 165 and 167: 10.1, 190 and 198: 9.8, 191: 8.9, 194: 6.6, 204: 10.09, 219: 10.6 g

SMILES | pH (pH of the salt solutions; [2]) | Dissolved aminoester [1, 4] | also measured
CCCN(CCC)CC(=O)O[C@H]1C[C@]2(C)[C@@H](C(C)=O)CC[C@H]2[C@@H]2CC[C@H]3C[C@H](O)CC[C@]3(C)[C@H]21 [Example 218] | – | – | pH (pH of the salt solutions; solution of the salt in saline, before any adjustment): 3.38; Dissolved aminoester ([1]; method C, 0.9% w/v saline in place of water, WT. of solution 95 g): 951 mg
CC(=O)[C@H]1CC[C@H]2[C@@H]3CC[C@H]4C[C@H](O)CC[C@]4(C)[C@H]3[C@@H](OC(=O)C(C)N3CCCCC3)C[C@]12C (some centres unmarked) [Example 180] | 3.60 | – | Dissolved aminoester [1, 3]: 117 mg
CCC(C)N(CC(=O)O[C@H]1C[C@]2(C)[C@@H](C(C)=O)CC[C@H]2[C@@H]2CC[C@H]3C[C@H](O)CC[C@]3(C)[C@H]21)C(C)CC (some centres unmarked) [Example 147] | 2.03 | 85 mg | –
CC(=O)[C@H]1CC[C@H]2[C@@H]3CC[C@H]4C[C@H](O)CC[C@]4(C)[C@H]3[C@@H](OC(=O)CN(C)C(C)CCC(C)C)C[C@]12C (some centres unmarked) [Example 192] | 3.00 | 100.7 mg | –
CC(=O)[C@H]1CC[C@H]2[C@@H]3CC[C@H]4C[C@H](O)CC[C@]4(C)[C@H]3[C@@H](OC(=O)CNC3CCCC3)C[C@]12C [Example 137] | 3.62 | – | Dissolved aminoester [1, 5]: 100 mg
CC(=O)[C@H]1CC[C@H]2[C@@H]3CC[C@H]4C[C@H](O)CC[C@]4(C)[C@H]3[C@@H](OC(=O)CNCC(C)(C)C)C[C@]12C [Example 142] | 3.12 | 92.3 mg | –
CC(=O)[C@H]1CC[C@H]2[C@@H]3CC[C@H]4C[C@H](O)CC[C@]4(C)[C@H]3[C@@H](OC(=O)CN3CCCC(C)C3)C[C@]12C (some centres unmarked) [Example 157] | 3.59 | – | Dissolved aminoester [1, 3]: 95 mg
CCCCN(C)CC(=O)OC1CC2(C)C(C(C)=O)CCC2C2CCC3CC(O)C(OC(C)=O)CC3(C)C12 (centres unmarked) [Example 170] | 3.7 | – | Dissolved aminoester [1, 5]: 104 mg
CCCN(CCC)CC(=O)O[C@H]1C[C@]2(C)[C@@H](C(C)=O)CCC[C@H]2[C@@H]2CC[C@H]3C[C@H](O)[C@@H](OCC)C[C@]3(C)[C@H]21 [Example 226 citrate salt] | – | – | pH (pH of the salt solutions; aqueous solution of the citrate, filtered, 9.5-10 mg/ml): 2.85; concentration of aqueous solution of the citrate ([1]; citric acid monohydrate in water, filtered solution): 9500 µg/mL
CCN(CC)CC(=O)OC1CC2(C)C(C(C)=O)CCC2C2CCC3CC(O)C(C)CC3(C)C12 (centres unmarked) [Example 173] | 2.82 | 78 mg | –
CC(=O)C1CCC2C3CCC4CC(O)CCC4(C)C3C(OC(=O)CNC(C)CC(C)C)CC12C (centres unmarked) [Example 162] | 3.0 | 86 mg | –
CCCO[C@H]1C[C@@]2(C)[C@@H](CC[C@@H]3[C@@H]2[C@@H](OC(=O)CN2CCC(C)CC2)C[C@]2(C)[C@@H](C(C)=O)CC[C@@H]32)C[C@@H]1O [Example 149] | 2.9 | 106 mg | –
CC(=O)[C@H]1CC[C@H]2[C@@H]3CC[C@H]4C[C@H](O)CC[C@]4(C)[C@H]3[C@@H](OC(=O)CCCN3CCC(C)CC3)C[C@]12C [Example 181] | 3.72 | – | Dissolved aminoester [1, 5]: 101 mg
CCN(CC)CC(=O)O[C@H]1C[C@]2(C)[C@@H](C(C)=O)CC[C@H]2[C@@H]2CC[C@H]3C[C@H](O)[C@@H](Cl)C[C@]3(C)[C@H]21 [Example 202] | 3.65 | – | Dissolved aminoester [1, 3]: 120.5 mg
CCCN(CCC)CC(=O)O[C@H]1C[C@]2(C)[C@@H](C(C)=O)CC[C@H]2[C@@H]2CC[C@H]3C[C@H](O)CC[C@]3(C)[C@H]21 [Example 217] | 3.53 | – | Dissolved aminoester [1, 3]: 76 mg
CCCN(CCC)CC(=O)O[C@H]1C[C@]2(C)[C@@H](C(C)=O)CC[C@H]2[C@@H]2CC[C@H]3C[C@](C)(O)CC[C@]3(C)[C@H]21 [Example 132] | 3.4 | – | Dissolved aminoester [1, 5]: 100 mg
CCCN(CCC)CC(=O)O[C@H]1C[C@]2(C)[C@@H](C(C)=O)CC[C@H]2[C@@H]2CC[C@H]3C[C@H](O)[C@@H](C)C[C@]3(C)[C@H]21 [Example 161] | 2.8 | – | Dissolved aminoester ([1]; method E: as C with further acid, WT. of solution Ex. 160: 6.12, 161: 7.8, 203: 12.7, 212: 12.125, 220: 10 g): 78 mg
CC(=O)[C@H]1CC[C@H]2[C@@H]3CC[C@H]4C[C@H](O)CC[C@]4(C)[C@H]3[C@@H](OC(=O)CN(C)C(C)CC(C)C)C[C@]12C (some centres unmarked) [Example 190] | 3.43 | – | Dissolved aminoester [1, 6]: 86 mg
CCCN(CCC)CC(=O)O[C@H]1C[C@]2(C)[C@@H](C(C)=O)CC[C@H]2[C@@H]2CC[C@H]3C[C@H](O)CC[C@]3(C)[C@H]21 [Example 219] | 3.77 | – | Dissolved aminoester [1, 6]: 106 mg
